Laboratory results: patent US10973922B2, “Glycoprotein-toxic payload conjugates” (GLYKOS FINLAND OY, priority 2013, dated 2021)
Where a SMILES comes first, the peptide text is derived from it. [ ]: non-standard residue; d: D form. Dolaproine = CO[C@@H]([C@@H]1CCCN1)[C@@H](C)C(=O)O; Dil = CC[C@H](C)[C@H](NC)[C@@H](CC(=O)O)OC; NMeV = CN[C@H](C(=O)O)C(C)C

How the values were obtained:
[1] = test system: SKOV-3 ovarian cancer cell; assay: In vitro cytotoxicity of dolastatin derivatives (PrestoBlue cell viability); type: cell-based, Human; settings: for IC50: concentration range wherein SKOV-3 cell viability falls to 50%, 96 h, measured range 1 nM-10 μM; for cytotoxicity compared to 1 (MMAF): SKOV-3, applied to cell culture medium; for cytotoxicity compared to 2 (monomethyldolastatin 10): SKOV-3
Experimental: Human ovarian cancer cell line SKOV-3 was from the ATCC (Manassas, Va., USA). The cells were grown according to the manufacturer's recommendations. Log phase cultures were collected and 5000 cells/well were seeded onto 96-well plates and incubated for 24 h. Serial dilutions of test molecules from a stock solution of 100 μM in 10% DMSO were made in cell culture medium, added to cells (maximum concentration of dimethylsulphoxide was 1%) and cultures were incubated further for 96 h. Cell viability was evaluated using PrestoBlue cell viability reagent (Life Technologies, Carlsbad, Calif., USA) according to the manufacturer's instructions. Cells were incubated for 2 h, and dye reduction was measured by absorbance at 570 nm. The compounds were assayed 1-2 times in triplicate.
Results of an exemplary assay are shown in FIG. 1, in which compound numbering is according to Example 1. The results are expressed in Table 1 as IC50 values of the analyzed derivatives.

[2] = Hydrophilicity by reverse-phase HPLC elution; type: physicochemical; settings: C-18 reverse-phase column, eluted at lower ACN concentration
Text: The products were purified by Äkta purifier 10 (GE Healthcare) HPLC instrument with Gemini-NX-5u C-18 reverse-phase column (4.6×250 mm, 110 Å (Phenomenex)) eluted with ACN gradient in aqueous ammonium hydrogen carbonate or aqueous trifluoroacetic acid.

| Compound | IC50 [1] [nM] | IC50 ([1]; Homo sapiens, SK-OV-3) [nM] | cytotoxicity compared to 1 (MMAF) [1] | other results |
| --- | --- | --- | --- | --- |
| N-(6-azido-6-deoxy-D-galactosyl)-MMAF [Compound 4] | 100 to 1000 | – | – | – |
| CC[C@H](C)[C@@H]([C@@H](CC(=O)N1CCC[C@H]1[C@H](OC)[C@@H](C)C(=O)N[C@@H](Cc1ccccc1)C(=O)O)OC)N(C)C(=O)[C@@H](NC(=O)[C@@H](NC)C(C)C)C(C)C [Compound 1, Monomethylauristatin F, reference compound] (H-[NMeV]V[Dil][Dolaproine]F-OH) | 100 to 1000 | – | – | – |
| C#CCCN(C)C(C(=O)NC(C(=O)N(C)C(C(C)CC)C(CC(=O)N1CCCC1C(OC)C(C)C(=O)NC(Cc1ccccc1)C(=O)O)OC)C(C)C)C(C)C (stereo not drawn) [Compound 6, N-(3-butynyl)-MMAF] | – | < 1 | more cytotoxic | – |
| CCC(C)C(C(CC(=O)N1CCCC1C(OC)C(C)C(=O)NC(Cc1ccccc1)C(=O)O)OC)N(C)C(=O)C(NC(=O)C(C(C)C)N(C)CCC(O)C(O)C(O)CO)C(C)C [Compound 5, N-(2-deoxy-D-glucosyl)-MMAF] | – | 1000 | equally or only slightly less cytotoxic | hydrophilicity compared to MMAF (1) and N-(3-butynyl)-MMAF (6) [2]: more hydrophilic |
| CCC(C)C(C(CC(=O)N1CCCC1C(OC)C(C)C(=O)NC(Cc1ccccc1)C(=O)O)OC)N(C)C(=O)C(NC(=O)C(C(C)C)N(C)C(=O)CCCC(=O)O)C(C)C (stereo not drawn) [Compound 14b, N-glutaryl-MMAF] | – | 100 to 1000 | – | cytotoxicity compared to 2 (monomethyldolastatin 10) [1]: equally or only slightly less cytotoxic |
| CCC(C)C(C(CC(=O)N1CCCC1C(OC)C(C)C(=O)NC(Cc1ccccc1)C(=O)O)OC)N(C)C(=O)C(NC(=O)C(C(C)C)N(C)CC(O)C(O)C(OC1OC(CO)C(OC2OC(CO)C(O)C(O)C2O)C(O)C1O)C(O)CO)C(C)C [Compound 10, N-{4-O-[4-O-(α-D-galactopyranosyl)-β-D-galactopyranosyl]-D-glucosyl}-MMAF] | – | 1000 to 10000 | – | – |
| CCC(C)C(C(CC(=O)N1CCCC1C(OC)C(C)C(=O)NC(Cc1ccccc1)C(=O)O)OC)N(C)C(=O)C(NC(=O)C(C(C)C)N(C)CC(O)C(O)C(O)C(O)COC1OC(CO)C(O)C(O)C1O)C(C)C [Compound 8, N-[6-O-(β-D-galactopyranosyl)-D-galactosyl]-MMAF] | – | 1000 to 10000 | less cytotoxic | – |
| CN[C@H](C(=O)N[C@H](C(=O)N(C)[C@@H](C(C)C)[C@@H](CC(=O)N1CCC[C@H]1[C@H](OC)[C@@H](C)C(=O)N[C@@H](Cc1ccccc1)c1nccs1)OC)C(C)C)C(C)C [Compound 2, monomethyldolastatin 10, reference compound] | < 1 | – | – | – |
| CCC(C)C(C(CC(=O)N1CCCC1C(OC)C(C)C(=O)NC(Cc1ccccc1)C(=O)O)OC)N(C)C(=O)C(NC(=O)C(C(C)C)N(C)CC(O)C(O)C(OC1OC(CO)C(O)C(OC2(C(=O)O)CC(O)C(NC(C)=O)C(C(O)C(O)CO)O2)C1O)C(O)CO)C(C)C [Compound 11, N-{4-O-[3-O-(α-N-acetylneuraminyl)-β-D-galactopyranosyl]-D-glucosyl}-MMAF] | > 10000 | – | less cytotoxic | – |
| CCC(C)C(C(CC(=O)N1CCCC1C(OC)C(C)C(=O)NC(Cc1ccccc1)c1nccs1)OC)N(C)C(=O)C(NC(=O)C(C(C)C)N(C)CC(O)C(O)C(O)C(O)CN=[N+]=[N-])C(C)C [Compound 13, N-(6-azido-6-deoxy-D-galactosyl)-dolastatin 10] | – | < 1 | – | cytotoxicity compared to 2 (monomethyldolastatin 10) [1]: equally or only slightly less cytotoxic |
| N-(6-O-propargyl-D-galactosyl)-MMAF [Compound 3] | 100 to 10000 | – | – | – |
